Measured values reported in US9260707B2, “Compounds for inhibition of MMP13-substrate interactions and methods of use thereof to treat osteoarthritis and cartilage degeneration” (ProteaPex Therapeutics, LLC, priority 2010, dated 2016).
Peptide text beside a SMILES is read from it.

Experiments:
[1] = tested on: hypertrophic chondrocyte-produced extracellular matrix (LTBP1 in native conformation); assay: Peptide binding to extracellular matrix of whole cell primary chondrocyte cultures; design: species or system avian
Protocol: (§1) Binding assays utilizing intact hypertrophic chondrocyte-produced extracellular matrix, LTBP1 immunoprecipitates of hypertrophic chondrocyte-produced extracellular matrix and recombinant protein of the calcium-binding, EGF-like domains of LTBP1 (30) were performed as described in Materials and Methods. *=p<0.001 compared to scrambled. ***=p<0.001 compared to MMP13-derived peptide by ANOVA with Tukey's analysis. (A) Intact hypertrophic chondrocyte-produced extracellular matrix and MMP13-19 or MMP13-10 peptide binding. (B) 25 μg eluates of hypertrophic cartilage immunoprecipitated with polyclonal antibody to LTBP1 and MMP13-19 peptide binding. (C) 15 ng of recombinant protein of the calcium-binding, EGF-like domains and MMP13-19 or MMP13-10 or MMP13-6 peptide binding.
Sterna were removed from day 17 chick embryos using microsurgical techniques as previously described (D'Angelo et al., J. Bone Miner. Res. 12:1368-1377, 1997). […] The cell suspensions were then filtered through a […] filter, counted, seeded onto Falcon 6-well, tissue culture treated plates and covered with 2 ml of high glucose DMEM containing 10% NuSerum and 50 μg/ml of penicillin/streptomycin, 2 mM of L-glutamine (Invitrogen Life Technologies, Carlsbad, Calif., USA). […]

[2] = tested on: resting cartilage tissue extract (LTBP1-containing TGFβ large latent complex); assay: Peptide binding assay, resting cartilage tissue extract; design: species or system avian; settings: 100 nM fluorescent-labeled peptide
Excerpt: (§2) Cartilage from day 17 avian embryo sterna was extracted with 0.5% CHAPS buffer and binding assays conducted. Scr=scrambled control; +cold=unlabeled competition. *=p<0.001 compared to scrambled. ***=p<0.001 compared to MMP13-derived peptide by ANOVA with Tukey's Analysis. (A) Resting cartilage and MMP13-19 peptide. (B) Hypertrophic cartilage and MMP13-19 peptide. (C) Hypertrophic cartilage and MMP13-10 peptide D. hypertrophic cartilage and MMP13-6 peptide.
(§3) Twenty-five micrograms of total equal protein from cartilage CHAPS extracts or five nanograms recombinant protein of the calcium-like EGF binding domain of LTBP1 (a kind gift of Sarah Dallas) or hypertrophic cartilage from day 17 avian embryo sterna and tibial growth plate cartilage from day 14 newborn rat pups were extracted with 0.5% CHAPS buffer and eluates immunoprecipitated with polyclonal antibody to LTBP1 and then samples were plated onto poly-L-lysine coated 96 well plates. After overnight drying, the protein-coated wells were incubated with 100 nM fluorescent-labeled peptide in Tris buffered saline [150 mM NaCl, 10 mM Tris, pH 8.0] and 20% horse serum for 4 hours at 16° C. After incubation, the wells are washed twice with binding buffer, the protein layer solubilized with 5N NaOH and fluorescence bound measured at 495 nm excitation and 520 nm emission on the LabSystems Fluoroskan Ascent CF plate reader. […]

[3] = tested on: calcium-binding EGF-like domains of LTBP1 (CE-LTBP1); assay: Peptide binding to recombinant calcium-binding EGF-like domains of LTBP1 (CE-LTBP1)
Protocol: as §1, with “(C) 15 ng of recombinant protein of the calcium-binding, EGF-like domains and MMP13-19 or MMP13-10 or MMP13-6 peptide binding.” left out
as §3, with “After overnight drying, the protein-coated wells were incubated with 100 nM fluorescent-labeled peptide in Tris buffered saline [150 mM NaCl, 10 mM Tris, pH 8.0] and 20% horse serum for 4 hours at 16° C.” left out

[4] = tested on: hypertrophic cartilage tissue extract (LTBP1-containing TGFβ large latent complex); assay: Peptide binding assay, hypertrophic cartilage tissue extract; design: species or system avian; settings: 100 nM fluorescent-labeled peptide
Excerpt: as §2, §3

MMP13 = MMP13 enzymatic activity in cartilage extracts with inhibitors; assay type: biochemical, avian
Protocol: Utilizing a standard curve with MMP13 and MMP9 catalytic domains (Enzo, Inc) we quantitated the amount of MMP13 and MMP9 activity in cartilage extracts (Table 4). Cartilage isolated from day 17 avian embryos contain 0.166 units and 0.152 units MMP13 per 40 μg total tissue in early hypertrophic and late hypertrophic tissue, respectively. […] Inclusion of an inhibitor of MMP13 (Calbiochem) reduces the activity in both cartilage populations by 24% and 30% respectively.

MMP = settings: in vivo; cited from earlier work
[5] = Toxicity in vivo by blood analysis; design: species or system rat
Protocol: Cytotoxicity was assessed by Alomar Blue Assay (Invitrogen) on primary chondrocytes and a monocyte cell line incubated for 24 hours with PxTx001-1. Absorbance was recorded at 570 nm for every hour up to 24 hrs to monitor both proliferation and metabolic activity. (FIG. 39). Toxicity in vivo was determined by blood analysis from rats that had been injected with the peptide as described previously. Total cell count, blood components and serum proteins were measured (Table 5).

MIA-induced OA model = assay: Acute treatment of MIA-induced OA, week 4 micro CT; assay type: in vivo, rat
[6] = tested on: mono-iodoacetate (MIA)-induced osteoarthritis; assay: MIA-induced osteoarthritis, cartilage mineralization (total and bone volume), d14 and d21; assay type: in vivo, rat; design: Total Volume / Bone Volume: unit not given here
Protocol: Isolated joints were analyzed by Micro CT to measure cortical bone, trabecular bone and cartilage of the patella, femur and tibia, the production of chondrophytes and tissue mineralization in response to treatment. Total mineralization in the patella, femur and tibial cartilages, as well as subchondral bone, were calculated with Scanco μCT software. Micro-CT was conducted with a Scanco uCT 35 (Scanco Medical, Bassersdorf, Switzerland) system. Scans of 15 μm voxel size, 55 KVp, 0.36 degrees rotation step (180 degrees angular range) and a 600 ms exposure per view produced from joints immersed in phosphate buffered saline.
Animals were treated with MMP13-19 peptide or BMP-7 protein once a week for two (d14) or three (d21) weeks following an injection of mono-iodoacetate (MIA), a chemical agent that induces osteoarthritis pathology measurable at four weeks post injection. The samples that received saline are the positive disease control. 250 nM of MMP13-19 peptide and 50 uM BMP-7 were injected laterally below the patellar ligament. […] But, it is also known that BMP-7 is bone-inducing.

## MMP13-10 peptide: amino acids 17-26 of SEQ ID NO: 1 (LRGETMIFKD; listed as Homo sapiens)
[1]
  binding compared to scrambled peptide: four-fold
[2]
  binding compared to scrambled peptide control: less than two-fold
[3]
  binding of recombinant protein more than scrambled peptide: did not bind specifically
[4]
  binding compared to scrambled peptide control: less than two-fold

## MMP13-6 peptide: amino acids 37-42 of SEQ ID NO: 1 (VDAELF; listed as Homo sapiens)
[1]
  binding compared to scrambled peptide: did not bind specifically
[2]
  binding compared to scrambled peptide control: did not specifically bind
[3]
  binding of recombinant protein more than scrambled peptide: did not bind specifically
[4]
  binding compared to scrambled peptide control: did not specifically bind

## Cc1cc(CNC(=O)c2cc(C(=O)NCc3ccc(F)c(C)c3)ncn2)ccc1F [MMP13 Inhibitor]
MMP13; early hypertrophic tissue
  reduction of MMP13 activity: 24%
MMP13; late hypertrophic tissue
  reduction of MMP13 activity: 30%

## COc1ccc(S(=O)(=O)N(Cc2cccnc2)[C@@H](C(=O)NO)C(C)C)cc1 [CGS-27023A]
MMP
  side-effects in treatment of OA: severe side-effects known as MMP-induced musculoskeletal syndrome

## CC[C@H](C)[C@H](NC(=O)[C@H](CCCCN)NC(=O)[C@H](CCCCN)NC(=O)[C@@H](NC(=O)[C@H](CCC(=O)O)NC(=O)[C@H](CCCCN)NC(=O)[C@@H]1CCCN1C(=O)[C@H](CC(C)C)NC(=O)CNC(=O)[C@H](CC(C)C)NC(=O)[C@@H](N)CCC(=O)O)C(C)C)C(=O)N[C@@H](CO)C(=O)N[C@@H](C)C(=O)N[C@@H](C)C(=O)N[C@H](C(=O)N[C@@H](Cc1c[nH]cn1)C(=O)N[C@@H](Cc1ccccc1)C(=O)N[C@@H](CCC(=O)O)C(=O)N[C@@H](CC(=O)O)C(=O)O)C(C)C [MMP13-19 peptide] (H-ELGLPKEVKKISAAVHFED-OH)
[5]; 1 injection
  ALT: 56 U/L
  AST: 99 U/L
  Alk Phos: 272 U/L
  BUN: 15 mg/dL
  Cholesterol: 74 mg/dL
  Creatinine: 0.4 mg/dL
  RBC: 5.59e+06 µL⁻¹
  Total Bilirubin: 0.3 mg/dL
  WBC: 3600 µL⁻¹
[5]; 4 injections
  ALT: 52 U/L
  AST: 95 U/L
  Alk Phos: 194.5 U/L
  BUN: 18 mg/dL
  Cholesterol: 67.5 mg/dL
  Creatinine: 0.3 mg/dL
  RBC: 6.9e+06 µL⁻¹
  Total Bilirubin: 1.1 mg/dL
  WBC: 4550 µL⁻¹
[5]; rats injected with the peptide
  total cell count, blood components and serum proteins (all parameters measured): within normal ranges

## CC1(C)SCCN(S(=O)(=O)c2ccc(Oc3ccncc3)cc2)[C@H]1C(=O)NO [prinomastat]
MMP
  side-effects in treatment of OA: severe side-effects known as MMP-induced musculoskeletal syndrome

B1: BMP-7: BMP-7 protein, positive control, chondroprotective and bone-inducing (protein, UniProt P18075 293-431, looked up)
Bone morphogenetic protein 7: STGSKQRSQNRSKTPKNQEALRMANVAENSSSDQRQACKKHELYVSFRDLGWQDWIIAPEGYAAYYCEGECAFPLNSYMNATNHAIVQTLVHFINPETVPKPCCAPTQLNAISVLYFDDSSNVILKKYRNMVVRACGCH
MIA-induced OA model; Femur
  BV/TV (ratio of bone volume to total volume): 0.2245 +/− 0.066
  TbN (trabecular number): 4.200 +/− 0.830
MIA-induced OA model; Patella
  TbN (trabecular number): 6.2122 +/− 0.169
MIA-induced OA model; Patella, 250 nM peptide or 500 ng BMP7 weekly infrapatellar
  BV/TV (ratio of bone volume to total volume): 0.6846 +/− 0.084
MIA-induced OA model; Tibia
  BV/TV (ratio of bone volume to total volume): 0.1757 +/− 0.087
  TbN (trabecular number): 4.9095 +/− 0.719
[6]; Patellar cartilage d14
  BV/TV: 0.0626
  Bone Volume: 0.419
[6]; Patellar cartilage d14, 250 nM peptide or 50 uM BMP-7 once a week
  Total Volume: 6.6967
[6]; Patellar cartilage d21
  BV/TV: 0.0192
  Bone Volume: 0.2037
  Total Volume: 10.7748
[6]; Total Joint Cartilage d14
  BV/TV: 0.0435
  Bone Volume: 1.0643
  Total Volume: 24.4891
[6]; Total Joint Cartilage d21
  BV/TV: 0.0412
  Bone Volume: 0.9607
  Total Volume: 23.3101
